Source: PubChem BioAssay (NCI)
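In this assay, cells in 96-well plates receive the compound at five concentrations for 48 hours. Endpoints are linearly interpolated between the surrounding concentrations. GI50 is the concentration that inhibits growth by half. Definition used: TGI = concentration required for complete inhibition of growth.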

Tests used:
Experiment in all cases: NCI anticancer screen, dose series, 48 h
A549 NSCLC = system: A549 NSCLC
RXF 393 renal = system: RXF 393 renal
UACC-62 melanoma = system: UACC-62 melanoma
COLO 205 colon = system: COLO 205 colon
786-0 renal = system: 786-0 renal
HCT-116 colon = system: HCT-116 colon
A498 renal = system: A498 renal
OVCAR-4 ovarian = system: OVCAR-4 ovarian
SK-MEL-2 melanoma = system: SK-MEL-2 melanoma
SN12C renal = system: SN12C renal
ACHN renal = system: ACHN renal
HCT-15 colon = system: HCT-15 colon
SNB-75 CNS = system: SNB-75 CNS
MDA-MB-231 breast = system: MDA-MB-231 breast
SR leukemia = system: SR leukemia
IGROV1 ovarian = system: IGROV1 ovarian
HCC-2998 colon = system: HCC-2998 colon
HS 578T breast = system: HS 578T breast
T-47D breast = system: T-47D breast
M14 melanoma = system: M14 melanoma
SW-620 colon = system: SW-620 colon
CCRF-CEM leukemia = system: CCRF-CEM leukemia
SNB-19 CNS = system: SNB-19 CNS
SK-MEL-5 melanoma = system: SK-MEL-5 melanoma
U251 CNS = system: U251 CNS
K-562 leukemia = system: K-562 leukemia
HOP-62 NSCLC = system: HOP-62 NSCLC
OVCAR-3 ovarian = system: OVCAR-3 ovarian
SK-MEL-28 melanoma = system: SK-MEL-28 melanoma
UO-31 renal = system: UO-31 renal
NCI-H23 lung = system: NCI-H23 lung
NCI-H226 lung = system: NCI-H226 lung
RPMI-8226 leukemia = system: RPMI-8226 leukemia
MCF7 breast = system: MCF7 breast
SF-268 CNS = system: SF-268 CNS
TK-10 renal = system: TK-10 renal
MALME-3M melanoma = system: MALME-3M melanoma
MDA-MB-435 = system: MDA-MB-435
HL-60(TB) leukemia = system: HL-60(TB) leukemia
PC-3 prostate = system: PC-3 prostate
NCI-H460 lung = system: NCI-H460 lung
NCI/ADR-RES ovarian = system: NCI/ADR-RES ovarian
LOX IMVI melanoma = system: LOX IMVI melanoma
UACC-257 melanoma = system: UACC-257 melanoma
NCI-H522 lung = system: NCI-H522 lung
KM12 colon = system: KM12 colon
OVCAR-5 ovarian = system: OVCAR-5 ovarian
SF-539 CNS = system: SF-539 CNS
CAKI-1 renal = system: CAKI-1 renal
HOP-92 NSCLC = system: HOP-92 NSCLC
MOLT-4 leukemia = system: MOLT-4 leukemia
HT29 colon = system: HT29 colon
BT-549 breast = system: BT-549 breast
OVCAR-8 ovarian = system: OVCAR-8 ovarian
SK-OV-3 ovarian = system: SK-OV-3 ovarian
SF-295 CNS = system: SF-295 CNS
DU-145 prostate = system: DU-145 prostate
EKVX NSCLC = system: EKVX NSCLC

## OCc1ccc(N(Cc2ccc(F)cc2)Cc2ccc(F)cc2)cc1Cl
A549 NSCLC
  GI50: 6.72 µM
  TGI: 22.1 µM
RXF 393 renal
  GI50: 12.7 µM
  TGI: 26.3 µM
UACC-62 melanoma
  GI50: 2.61 µM
  TGI: 13.7 µM
COLO 205 colon
  GI50: 11.7 µM
  TGI: 24.4 µM
786-0 renal
  GI50: 11.6 µM
  TGI: 25.5 µM
HCT-116 colon
  GI50: 2.87 µM
  TGI: 10.8 µM
A498 renal
  GI50: 0.18 µM
  TGI: 0.989 µM
OVCAR-4 ovarian
  GI50: 3.01 µM
  TGI: 14.7 µM
SK-MEL-2 melanoma
  GI50: 10.6 µM
  TGI: 26.9 µM
SN12C renal
  GI50: 11.5 µM
  TGI: 26 µM
ACHN renal
  GI50: 10.9 µM
  TGI: 23 µM
HCT-15 colon
  GI50: 9.88 µM
  TGI: 24.2 µM
SNB-75 CNS
  GI50: 7.74 µM
  TGI: 22 µM
MDA-MB-231 breast
  GI50: 11.8 µM
  TGI: 25.9 µM
SR leukemia
  GI50: 5.51 µM
  TGI: 24.4 µM
IGROV1 ovarian
  GI50: 2.08 µM
  TGI: 8.07 µM
HCC-2998 colon
  GI50: 14.3 µM
  TGI: 30.8 µM
HS 578T breast
  GI50: 16.2 µM
  TGI: 45.5 µM
T-47D breast
  GI50: 3.31 µM
  TGI: 15.4 µM
M14 melanoma
  GI50: 5.79 µM
  TGI: 20.2 µM
SW-620 colon
  GI50: 6.21 µM
  TGI: 20.7 µM
CCRF-CEM leukemia
  GI50: 13.1 µM
  TGI: 33.9 µM
SNB-19 CNS
  GI50: 12.9 µM
  TGI: 31.6 µM
SK-MEL-5 melanoma
  GI50: 15.3 µM
  TGI: 28.9 µM
U251 CNS
  GI50: 5.5 µM
  TGI: 19.4 µM
K-562 leukemia
  GI50: 4.93 µM
  TGI: 23.1 µM
HOP-62 NSCLC
  GI50: 10.9 µM
  TGI: 23.2 µM
OVCAR-3 ovarian
  GI50: 10.3 µM
  TGI: 22.7 µM
SK-MEL-28 melanoma
  GI50: 13.9 µM
  TGI: 27.6 µM
UO-31 renal
  GI50: 3.49 µM
  TGI: 16.2 µM
NCI-H23 lung
  GI50: 7.95 µM
  TGI: 24.3 µM
NCI-H226 lung
  GI50: 0.466 µM
  TGI: 2.03 µM
RPMI-8226 leukemia
  GI50: 8.44 µM
  TGI: 30.4 µM
MCF7 breast
  GI50: 3.72 µM
  TGI: 17 µM
SF-268 CNS
  GI50: 12.4 µM
  TGI: 26.9 µM
TK-10 renal
  GI50: 2.08 µM
  TGI: 11.2 µM
MALME-3M melanoma
  GI50: 18.4 µM
  TGI: 35.4 µM
MDA-MB-435
  GI50: 10.2 µM
  TGI: 22.4 µM
HL-60(TB) leukemia
  GI50: 14.5 µM
  TGI: 35.4 µM
PC-3 prostate
  GI50: 9.08 µM
  TGI: 22.8 µM
NCI-H460 lung
  GI50: 3.64 µM
  TGI: 17.1 µM
NCI/ADR-RES ovarian
  GI50: 12.3 µM
  TGI: 30.4 µM
LOX IMVI melanoma
  GI50: 9.51 µM
  TGI: 23.3 µM
UACC-257 melanoma
  GI50: 3.74 µM
  TGI: 15.6 µM
NCI-H522 lung
  GI50: 9.39 µM
  TGI: 25.9 µM
KM12 colon
  GI50: 10.5 µM
  TGI: 23.8 µM
OVCAR-5 ovarian
  GI50: 2.11 µM
  TGI: 11.9 µM
SF-539 CNS
  GI50: 15.7 µM
  TGI: 30 µM
CAKI-1 renal
  GI50: 1.7 µM
  TGI: 5.87 µM
HOP-92 NSCLC
  GI50: 2.21 µM
  TGI: 10.2 µM
MOLT-4 leukemia
  GI50: 7.84 µM
  TGI: 30.1 µM
HT29 colon
  GI50: 9.66 µM
  TGI: 23.3 µM
BT-549 breast
  GI50: 13.5 µM
  TGI: 28.4 µM
OVCAR-8 ovarian
  GI50: 12.5 µM
  TGI: 27.8 µM
SK-OV-3 ovarian
  GI50: 13.6 µM
  TGI: 26.5 µM

## COc1ccc2c(c1)C(=O)c1c-2c(OCCCN(C)C)nc2cc(Br)ccc12
A549 NSCLC
  GI50: 3.52 µM
  TGI: 11.4 µM
SF-295 CNS
  GI50: 7.3 µM
  TGI: 20.7 µM
RXF 393 renal
  GI50: 1.7 µM
  TGI: 3.4 µM
UACC-62 melanoma
  GI50: 12.5 µM
  TGI: 26.4 µM
COLO 205 colon
  GI50: 13.8 µM
  TGI: > 100 µM
786-0 renal
  GI50: 1.59 µM
  TGI: 2.99 µM
HCT-116 colon
  GI50: 5.16 µM
  TGI: 18.5 µM
A498 renal
  GI50: 7.31 µM
  TGI: 20.5 µM
OVCAR-4 ovarian
  GI50: 1.96 µM
  TGI: 5.17 µM
SK-MEL-2 melanoma
  GI50: 19.1 µM
  TGI: 36.3 µM
SN12C renal
  GI50: 2.01 µM
  TGI: 4.51 µM
ACHN renal
  GI50: 1.29 µM
  TGI: 2.73 µM
HCT-15 colon
  GI50: 4.75 µM
  TGI: 18.3 µM
SNB-75 CNS
  GI50: 1.57 µM
  TGI: 4.44 µM
MDA-MB-231 breast
  GI50: 3.18 µM
  TGI: 13.5 µM
IGROV1 ovarian
  TGI: 26.9 µM
HCC-2998 colon
  GI50: 10.3 µM
  TGI: 22.7 µM
HS 578T breast
  GI50: 3.46 µM
  TGI: 15.4 µM
T-47D breast
  GI50: 10.8 µM
  TGI: 32.2 µM
M14 melanoma
  GI50: 14.8 µM
  TGI: 29 µM
SW-620 colon
  GI50: 5.2 µM
  TGI: 20 µM
CCRF-CEM leukemia
  GI50: 5.2 µM
  TGI: 23.8 µM
SNB-19 CNS
  GI50: 3.08 µM
  TGI: 11.8 µM
SK-MEL-5 melanoma
  GI50: 15 µM
  TGI: 28.3 µM
U251 CNS
  GI50: 2.1 µM
  TGI: 4.22 µM
K-562 leukemia
  GI50: 6.75 µM
  TGI: 23.1 µM
HOP-62 NSCLC
  GI50: 1.81 µM
  TGI: 4.29 µM
OVCAR-3 ovarian
  GI50: 3.45 µM
  TGI: 13.4 µM
SK-MEL-28 melanoma
  GI50: 1.87 µM
  TGI: 3.74 µM
DU-145 prostate
  GI50: 5.91 µM
  TGI: 18.9 µM
UO-31 renal
  GI50: 1.36 µM
  TGI: 2.88 µM
NCI-H23 lung
  GI50: 11.3 µM
  TGI: 24.6 µM
EKVX NSCLC
  GI50: 2.78 µM
  TGI: 13.5 µM
NCI-H226 lung
  GI50: 4.63 µM
  TGI: 18.7 µM
RPMI-8226 leukemia
  GI50: 15.9 µM
  TGI: 39.7 µM
MCF7 breast
  GI50: 2.32 µM
  TGI: 13.7 µM
SF-268 CNS
  GI50: 2.5 µM
  TGI: 10.4 µM
TK-10 renal
  GI50: 4.17 µM
  TGI: 13.8 µM
MALME-3M melanoma
  GI50: 1.87 µM
  TGI: 4.64 µM
MDA-MB-435
  GI50: 5.45 µM
  TGI: 18.1 µM
HL-60(TB) leukemia
  GI50: 29.4 µM
  TGI: > 100 µM
PC-3 prostate
  GI50: 3.04 µM
  TGI: 7.78 µM
NCI-H460 lung
  GI50: 2.54 µM
  TGI: 7.57 µM
NCI/ADR-RES ovarian
  GI50: 2.84 µM
  TGI: 16.5 µM
LOX IMVI melanoma
  GI50: 11.3 µM
  TGI: 23.7 µM
UACC-257 melanoma
  GI50: 16.4 µM
  TGI: 32.9 µM
NCI-H522 lung
  GI50: 7.05 µM
  TGI: 21.9 µM
KM12 colon
  GI50: 11.4 µM
  TGI: 24.3 µM
OVCAR-5 ovarian
  GI50: 1.71 µM
  TGI: 3.59 µM
SF-539 CNS
  GI50: 1.69 µM
  TGI: 3.16 µM
CAKI-1 renal
  GI50: 11 µM
  TGI: 23.5 µM
HOP-92 NSCLC
  GI50: 6.12 µM
  TGI: 20.4 µM
MOLT-4 leukemia
  GI50: 3.09 µM
  TGI: 18.7 µM
HT29 colon
  GI50: 10.5 µM
  TGI: 26.8 µM
BT-549 breast
  GI50: 13.5 µM
  TGI: 28 µM
OVCAR-8 ovarian
  GI50: 2.63 µM
  TGI: 6.95 µM
SK-OV-3 ovarian
  GI50: 7.28 µM
  TGI: 22.9 µM
